Results reported in ChEMBL document CHEMBL1143243, “Design, synthesis, evaluation, and crystallographic-based structural studies of HIV-1 protease inhibitors with reduced response to the V82A mutation” (J Med Chem, 2008).

Experiments:
[1] = target: Human immunodeficiency virus type 1 protease (Human immunodeficiency virus 1, UniProt Q72874, V82A); test: Binding affinity to HIV1 protease V82A mutant
[2] = system: Human immunodeficiency virus 1; test: Ratio of Ki for HIV1 protease V82A mutant to Ki for wild type HIV1 protease
[3] = target: Protease (Human immunodeficiency virus 1, UniProt Q9YQ12); test: Binding affinity to HIV1 protease
Sequence of Protease (Q9YQ12 whole entry): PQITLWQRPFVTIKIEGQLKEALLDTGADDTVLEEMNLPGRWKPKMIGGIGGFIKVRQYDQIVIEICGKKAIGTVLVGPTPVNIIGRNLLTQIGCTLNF

CC(C)[C@H](NC(=O)N(C)Cc1ccccn1)C(=O)N[C@@H](Cc1ccccc1)[C@H](O)[C@@H](O)[C@H](Cc1ccccc1)NC(=O)[C@@H](NC(=O)N(C)Cc1ccccn1)C(C)C [A-76928]
Ki [1]: 9 nM
Ratio Ki [2]: 7
Ki [3]: 1.3 nM

CC(C)[C@H](NC(=O)N(C)Cc1ccccn1)C(=O)N[C@@H](Cc1ccccc1)[C@H](O)[C@@H](O)[C@H](CC1CCCCC1)NC(=O)[C@@H](NC(=O)N(C)Cc1ccccn1)C(C)C
Ratio Ki [2]: 4
Ki [3]: 3.2 nM

CC(C)[C@H](NC(=O)N(C)Cc1ccccn1)C(=O)N[C@@H](CC1CCCCC1)[C@H](O)[C@@H](O)[C@H](CC1CCCCC1)NC(=O)[C@@H](NC(=O)N(C)Cc1ccccn1)C(C)C
Ki [1]: 12 nM
Ratio Ki [2]: 2
Ki [3]: 6 nM
